Measured values as given in PubChem BioAssay AID179 (DTP/NCI, 2004).
Activity calls are given as the source filed them.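 How the source made its calls: active means compounds giving half or more protection of infected cells from virus-caused growth loss, again on retest; inactive means the rest.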

Test system: CEM cells HIV-1 protection, formazan growth assay
Assay: NCI AIDS Antiviral Assay
Details: for IC50: measured here: growth of uninfected CEM cells
How it was run: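 Category rules: moderately active means at least 50% protection on retest, and confirmed active means 100% protection reproducibly. The underlying data came from a formazan growth assay in HIV-1-infected CEM cells.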

Compound `CC(=O)c1cc(C(C)=O)c(CC(=O)C(=O)Nc2cccc(C)c2C)nc1CC(=O)C(=O)Nc1cccc(C)c1C` has an EC50 of over 200 µM and an IC50 of over 200 µM.
For `O=c1oc2ccccc2c(O)c1C1c2ccccc2Oc2c1c(=O)oc1ccccc21` (centres undefined), the outcome was “inactive”.
With `CSc1nc(=O)n(CCC#N)nc1SC` the EC50 was over 200 µM and the IC50 was 29.5 µM.
`COC(=O)c1c(C)cccc1CC1Cc2c(C)cccc2C1=O` (centres undefined) gave an EC50 of over 200 µM and an IC50 of 41.7 µM.
In the case of `COc1ccc(/C=C2\C=Cc3ccccc32)cc1`, the EC50 is reported as over 16.2 µM and the IC50 is reported as 13.8 µM.
In the case of `NC(=O)c1c(N)ncn1C1OC(CO)C(F)C1O` (centres undefined), the EC50 is reported as over 200 µM and the IC50 is reported as over 200 µM.
Work on `COc1ccc(N=Nc2c(-c3ccccc3)nn(C(=O)CC(=O)Nc3ccc(OC)cc3)c2-c2ccccc2)cc1` yielded an EC50 of over 25.1 µM and an IC50 of over 25.1 µM.
For `COc1ccc(CN2CC(=O)N3Cc4ccccc4CN3C(=O)C2)cc1`, the EC50 was over 200 µM and the IC50 was 166 µM.
With `CCCNC(=O)NS(=O)(=O)c1ccc(Cl)cc1` the outcome was “inactive”.
`C[n+]1c(-c2ccc(/C=N/Nc3ccnc(N/N=C/c4ccc(-c5cn6ccccc6[n+]5C)cc4)n3)cc2)cn2ccccc21` gave an EC50 of 4.68 µM and an IC50 of 9.77 µM.
Compound `COc1ccc(C2Oc3c(cccc3OC)C=C2[N+](=O)[O-])cc1` (centres undefined) has an EC50 of over 200 µM and an IC50 of 1.51 µM.
`c1cnc2c(c1)Oc1nc3ccccc3nc1S2` gave an EC50 of over 91.2 µM and an IC50 of 14.5 µM.
Compound `COC(=O)Cc1c(-c2c(CC(=O)OC)c3ccccc3n2C2OC(COC(C)=O)C(OC(C)=O)C(OC(C)=O)C2OC(C)=O)[nH]c2ccccc12` (centres undefined) has an EC50 of over 200 µM and an IC50 of 26.3 µM.
In the case of `CN1C[C@@H]2CC(=O)CC[C@@H]2C[C@H]1C#N`, the EC50 is reported as over 676 µM and the IC50 is reported as 339 µM.
For `CCOC(=O)C(NC(=O)c1nc[nH]c1[N+](=O)[O-])C(C)C` (centres undefined), the EC50 was over 91.2 µM and the IC50 was 63.1 µM.
Compound `O=C(CC1CCN(C(=O)c2ccccc2)C(Cc2c[nH]c3ccccc23)C1O)N1CCCC1` (centres undefined) has an EC50 of over 200 µM and an IC50 of over 200 µM.
For `Cc1cc(N(CCC#N)CCC#N)ccc1/C=C1N=C(/C=C\c2ccccc2)N(c2ccc(C(=O)O)cc2)C\1=O`, the EC50 was over 13.5 µM and the IC50 was over 13.5 µM.
Compound `Fc1ccc(C(=NCc2ccccc2)N2CCOCC2)cc1` has an EC50 of over 200 µM and an IC50 of over 200 µM.
`O=C1C(c2c[nH]c3ccccc23)=Nc2ccc(Br)cc21` showed an EC50 of over 20 µM and an IC50 of 5.89 µM.
Compound `CN(C)c1cccc2c(S(=O)(=O)NCCN)cccc12` has an EC50 of over 200 µM and an IC50 of 174 µM.
`CC1(C)C2CCC1(CS(=O)O)C(=O)C2.[Ag]` (centres undefined) was tested, and the EC50 was over 398 µM and the IC50 was 7.94 µM.
Work on `Cc1[nH]n(-c2nc(O)c(-c3ccccc3)c(=O)[nH]2)c(=O)c1CCO` yielded an EC50 of over 200 µM and an IC50 of over 200 µM.
`N#CCc1nc(-c2cc3ccc(O)cc3oc2=O)cs1` showed an EC50 of over 200 µM and an IC50 of 26.9 µM.
With `Cc1cn(C2CC(N=[N+]=[N-])C(COC(=O)CCCCCCCCCCCCl)O2)c(=O)[nH]c1=O` (centres undefined) the EC50 was 0.288 µM and the IC50 was 20 µM.
For `CSc1c(C(=O)Nc2ccc(Cl)cc2)c(N)n(N)c(=O)c1C#N`, the EC50 was over 200 µM and the IC50 was 40.7 µM.
Compound `CO/C(N)=C(\C#N)N=Cc1ccccc1` has an EC50 of over 200 µM and an IC50 of 105 µM.
`C#CCC(O)c1ccc(OC)c(OCc2ccccc2)c1` (centres undefined) was tested, and the EC50 was over 200 µM and the IC50 was 69.2 µM.
For `O=S(Cc1ccc2c(c1)OCO2)c1ccccc1` (centres undefined), the EC50 was over 955 µM and the IC50 was 661 µM.
With `O=C(Nc1ccc(Cl)cc1)c1cc2cc(N=Nc3ccccc3Cl)ccc2oc1=O` the EC50 was over 16.6 µM and the IC50 was over 16.6 µM.
`CCOC(=O)Cc1ccc(Nc2nc3cc(C(F)(F)F)ccc3nc2C(=O)OCC)cc1` was tested, and the EC50 was over 100 µM and the IC50 was over 100 µM.
`COC(OC)c1cccnc1C` showed an EC50 of over 1480 µM and an IC50 of 1050 µM.
In the case of `Cn1c(=O)c2c(ncn2CCCCn2ccnc2[N+](=O)[O-])n(C)c1=O`, the EC50 is reported as over 200 µM and the IC50 is reported as over 200 µM.
`O=C1CC(c2ccc(Cl)cc2)NC(=O)N1CCN1CCCC1` (centres undefined) gave an EC50 of over 200 µM and an IC50 of over 200 µM.
With `CC1(C)CNC[C@](C)(OCCO)C(=O)[N-]C(C)(C)CNC[C@@](C)(OCCO)C(=O)[N-]1.[Ni+2]` the EC50 was over 200 µM and the IC50 was 182 µM.
`CON1C(=O)C2(CCCCC2)C(=O)C12C=CC(C)CC2` (centres undefined) was tested, and the EC50 was over 162 µM and the IC50 was over 162 µM.
`COC(=O)C1=C(C)NC2=C(C(=O)c3ccccc32)C1c1cn[nH]c1-c1ccccc1` (centres undefined) showed an EC50 of over 20 µM and an IC50 of over 20 µM.
For `CC1OC(n2cc(F)c(=O)[nH]c2=O)CCC1O` (centres undefined), the EC50 was over 1020 µM and the IC50 was over 200 µM.
Compound `COc1ccc(C[n+]2cccc(O)c2)cc1` has an EC50 of over 200 µM and an IC50 of 112 µM.
`CC/C(Cl)=N\OC(=O)Nc1ccc(F)c([N+](=O)[O-])c1` gave an EC50 of over 200 µM and an IC50 of 2.82 µM.
For `C1=CC2C=CC(C=C1)P2c1ccccc1` (centres undefined), the outcome was “inactive”.
In the case of `COc1cc(OC)cc(N(C)Cc2cnc3nc(N)nc(N)c3c2C)c1`, the EC50 is reported as over 200 µM and the IC50 is reported as 0.138 µM.
